Measured values published in paper PMC3163380, “Design, Synthesis and Biological Evaluation of Novel Pyrimido[4,5-d]pyrimidine CDK2 Inhibitors as Anti-Tumor Agents” (Scientia Pharmaceutica, 2011).

Legend:
RPMI-8226 = assay: NCI primary anti-cancer assay (SRB), RPMI-8226; assay type: cell-based; settings: Homo sapiens; 10^−5M; Leukemia RPMI-8226; read-out: Growth Inhibition %
Method: (§1) Evaluation of anti-cancer activities on pyrimido[4,5-d]pyrimidine derivatives were performed at the National Cancer Institute (NCI) USA. First the newly synthesized compounds have been evaluated in primary anti-cancer assay at 10^−5M concentration against 60 human tumor cell lines then the active compounds were tested at 5 different concentrations against the same 60 human tumor cell lines. The biological data for the newly synthesized compounds are compiled in table 2
(§2) The cytotoxic activity was measured in vitro for the newly synthesized compounds using the SulfoRhodamine-B stain (SRB) assay using the method of Skehan. Cells were plated in 96-multiwell microtiter plate (10^4 cells/well) for 24 h before treatment with the compound(s) to allow attachment of cell to the wall of the plate. Tested compounds were dissolved in DMSO and diluted with saline to the appropriate volume. Triplicate wells were prepared for each individual dose. Monolayer cells were incubated with the compound(s) for 48 h at 37 °C and in atmosphere of 5% CO2. After 48 h, cells were fixed, washed, and stained for 30 min with 0.4% (wt/vol) with SRB dissolved in 1% acetic acid. Unbound dye was removed by four washes with 1% acetic acid, and attached stain was recovered with Tris-EDTA buffer. Color intensity was measured in an ELISA reader. The relation between surviving fraction and drug concentration is plotted to get the survival curve for tumor cell line after the specified time.

UACC-257 = assay: NCI primary anti-cancer assay (SRB), UACC-257; assay type: cell-based; settings: Homo sapiens; 10^−5M; Melanoma UACC-257; read-out: Growth Inhibition %
Method: as §1, §2

A549/ATCC = assay: NCI primary anti-cancer assay (SRB), A549/ATCC; assay type: cell-based; settings: Homo sapiens; 10^−5M; Non-Small Cell Lung Cancer A549/ATCC; read-out: Growth Inhibition %
Method: as §1, §2

IGROV1 = assay: NCI primary anti-cancer assay (SRB), IGROV1; assay type: cell-based; settings: Homo sapiens, IGROV-1; 10^−5M; Ovarian Cancer IGROV1; read-out: Growth Inhibition %
Method: as §1, §2

[1] = test system: 60 human tumor cell lines; assay: NCI primary anti-cancer assay, summary over tumor cell lines; assay type: cell-based; settings: 10^−5M, Non-small cell lung cancer, Ovarian cancer, Leukemia and Melanoma lines / different tumor cell lines, read-out: growth inhibitions (range over cell lines)
Method: as §1, §2

CDK2/CyclinA = target: T1, CDK2/CyclinA (Homo sapiens, UniProt P24941); assay: CDK2/cyclinA enzymatic activity inhibition assay (32P-ATP, histone H1); assay type: biochemical; settings: mean of at least two independent experiments
T1 construct: hexa-histidine (N); made in house; host or cells: sf21 insect cells (baculovirus)

MOLT-4 = assay: NCI primary anti-cancer assay (SRB), MOLT-4; assay type: cell-based; settings: Homo sapiens; 10^−5M; Leukemia MOLT-4; read-out: Growth Inhibition %
Method: as §1, §2

CDK4/CyclinD = CDK4/CyclinD (Homo sapiens, UniProt P11802); assay: CDK4/CyclinD inhibition assay; assay type: biochemical; settings: mean of at least two independent experiments
[2] = target: T2, human EGFR tyrosine kinase domain (Homo sapiens, UniProt P00533); assay: EGFR tyrosine kinase inhibition assay; assay type: biochemical; settings: mean of at least two independent experiments
T2 construct: C-terminal human EGFR tyrosine kinase domain

UO-31 = assay: NCI primary anti-cancer assay (SRB), UO-31; assay type: cell-based; settings: Homo sapiens; 10^−5M; Renal Cancer UO-31; read-out: Growth Inhibition %
Method: as §1, §2

EKVX = assay: NCI primary anti-cancer assay (SRB), EKVX; assay type: cell-based; settings: Homo sapiens; 10^−5M; Non-Small Cell Lung Cancer EKVX; read-out: Growth Inhibition %
Method: as §1
as §2, with “The relation between surviving fraction and drug concentration is plotted to get the survival curve for tumor cell line after the specified time.” left out

MCF7 = assay: NCI primary anti-cancer assay (SRB), MCF7; assay type: cell-based; settings: Homo sapiens; 10^−5M; Breast Cancer MCF7; read-out: Growth Inhibition %
Method: as §1
as §2, with “The relation between surviving fraction and drug concentration is plotted to get the survival curve for tumor cell line after the specified time.” left out

HS 578T = assay: NCI primary anti-cancer assay (SRB), HS 578T; assay type: cell-based; settings: Homo sapiens; 10^−5M; Breast Cancer HS 578T; read-out: Growth Inhibition %
Method: as §1, §2

HL-60(TB) = assay: NCI primary anti-cancer assay (SRB), HL-60(TB); assay type: cell-based; settings: Homo sapiens; 10^−5M; Leukemia HL-60(TB); read-out: Growth Inhibition %
Method: as §1, §2

MDA-MB-231/ATCC = assay: NCI primary anti-cancer assay (SRB), MDA-MB-231/ATCC; assay type: cell-based; settings: Homo sapiens; 10^−5M; Breast Cancer MDA-MB-231/ATCC; read-out: Growth Inhibition %
Method: as §1, §2

HOP-92 = assay: NCI primary anti-cancer assay (SRB), HOP-92; assay type: cell-based; settings: Homo sapiens; 10^−5M; Non-Small Cell Lung Cancer HOP-92; read-out: Growth Inhibition %
Method: as §1, §2

K-562 = assay: NCI primary anti-cancer assay (SRB), K-562; assay type: cell-based; settings: Homo sapiens, K562; 10^−5M; Leukemia K-562; read-out: Growth Inhibition %
Method: as §1, §2

SF-539 = assay: NCI primary anti-cancer assay (SRB), SF-539; assay type: cell-based; settings: Homo sapiens; 10^−5M; CNS Cancer SF-539; read-out: Growth Inhibition %
Method: as §1, §2

OVCAR-8 = assay: NCI primary anti-cancer assay (SRB), OVCAR-8; assay type: cell-based; settings: Homo sapiens; 10^−5M; Ovarian Cancer OVCAR-8; read-out: Growth Inhibition %
Method: as §1, §2

BT-549 = assay: NCI primary anti-cancer assay (SRB), BT-549; assay type: cell-based; settings: Homo sapiens; 10^−5M; Breast Cancer BT-549; read-out: Growth Inhibition %
Method: as §1
as §2, with “The relation between surviving fraction and drug concentration is plotted to get the survival curve for tumor cell line after the specified time.” left out

Chain of CDK4/CyclinD (P11802 whole entry, species assumed, the tested form may be a part): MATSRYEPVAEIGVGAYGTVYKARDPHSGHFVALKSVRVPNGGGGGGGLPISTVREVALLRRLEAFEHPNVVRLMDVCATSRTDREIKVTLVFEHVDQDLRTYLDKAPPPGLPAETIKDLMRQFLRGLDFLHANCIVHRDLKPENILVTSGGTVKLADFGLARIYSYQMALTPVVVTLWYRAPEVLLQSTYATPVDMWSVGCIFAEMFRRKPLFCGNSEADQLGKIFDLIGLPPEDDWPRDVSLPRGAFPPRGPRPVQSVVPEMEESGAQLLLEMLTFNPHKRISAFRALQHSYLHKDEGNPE
Chain of CDK4/CyclinD (P24385 whole entry partner, species assumed, the tested form may be a part): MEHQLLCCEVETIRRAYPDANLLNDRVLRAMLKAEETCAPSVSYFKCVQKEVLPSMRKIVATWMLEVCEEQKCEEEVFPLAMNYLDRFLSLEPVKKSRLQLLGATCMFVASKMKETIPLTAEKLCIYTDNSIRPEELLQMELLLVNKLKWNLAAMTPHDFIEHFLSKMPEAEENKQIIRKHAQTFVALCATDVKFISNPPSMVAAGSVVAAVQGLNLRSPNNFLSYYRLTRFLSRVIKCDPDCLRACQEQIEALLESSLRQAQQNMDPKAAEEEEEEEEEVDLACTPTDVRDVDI
T2 sequence (P00533 712-979 limits assumed): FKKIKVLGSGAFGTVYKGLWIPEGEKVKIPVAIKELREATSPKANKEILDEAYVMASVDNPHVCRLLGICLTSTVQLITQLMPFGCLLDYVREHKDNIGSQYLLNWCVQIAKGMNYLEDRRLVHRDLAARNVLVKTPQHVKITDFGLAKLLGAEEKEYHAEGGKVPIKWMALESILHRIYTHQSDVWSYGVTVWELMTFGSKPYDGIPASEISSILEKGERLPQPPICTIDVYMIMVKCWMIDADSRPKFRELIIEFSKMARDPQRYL

Structure (SMILES)	inhibition at 10 µM (RPMI-8226)	inhibition at 10 µM (IGROV1)	melting point	inhibition at 10 µM [1]	IC50 (CDK2/CyclinA)	inhibition at 10 µM (MOLT-4)	IC50 (CDK4/CyclinD)	IC50 [2]	inhibition at 10 µM (UO-31)	inhibition at 10 µM (EKVX)	inhibition at 10 µM (HL-60(TB))	inhibition at 10 µM (HOP-92)	further results
O=c1[nH]c(NCc2ccccc2)nc2nc(Nc3ccc(NC(=S)Nc4ccccc4)cc3)nc(-c3ccc(O)cc3O)c12 [Compound 7a, 1-(4-{[7-(Benzylamino)-4-(2,4-dihydroxyphenyl)-5-oxo-5,6-dihydropyrimido[4,5-d]pyrimidin-2-yl]amino}phenyl)-3-phenylthiourea]	22.6%	29.7%	> 300 °C	50 to 70%	0.31 µM	36.7%	3.33 µM	> 10 µM	21.4%	36.8%			inhibition at 10 µM (UACC-257): 60.3%; inhibition at 10 µM (A549/ATCC): 58.4%
Cc1nc(Nc2ccc(NC(=S)Nc3ccccc3)cc2)nc2nc(NCc3ccccc3)[nH]c(=O)c12 [Compound 7b, 1-(4-{[7-(Benzylamino)-4-methyl-5-oxo-5,6-dihydropyrimido[4,5-d]pyrimidin-2-yl]amino}-phenyl)-3-phenylthiourea]	50.2%		> 300 °C	50 to 70%	0.86 µM	32.9%	4.85 µM	> 10 µM		28.5%	24.5%	20.8%	inhibition at 10 µM (MCF7): 43.5%; inhibition at 10 µM (HS 578T): 33.6%; inhibition at 10 µM (MDA-MB-231/ATCC): 31.5%; inhibition at 10 µM (K-562): 53.7%; inhibition at 10 µM (SF-539): 42%
Cc1nc(Nc2ccc(NC(=S)Nc3ccccc3)cc2)nc2nc(Nc3ccc(S(=O)(=O)O)cc3)[nH]c(=O)c12 [Compound 7h, 4-{[5-Methyl-4-oxo-7-({4-[(phenylcarbamothioyl)amino]phenyl}amino)-3,4-dihydropyrimido[4,5-d]pyrimidin-2-yl]amino}benzenesulfonic acid]	52.5%	28%	> 300 °C	50 to 70%	6 µM	20.8%	> 10 µM	> 10 µM	21.1%		29%	24.3%	inhibition at 10 µM (OVCAR-8): 50.2%; IC50 CDK4/CyclinD (CDK4/CyclinD): no activity; inhibition at 10 µM (BT-549): 39%
